Measured values: US20180071307A1, “MEDICINAL COMPOSITION FOR ALLEVIATING ENDOMETRIOSIS AND COMPLICATIONS THEREOF AND USE OF THE SAME” (NATIONAL SUN YAT-SEN UNIVERSITY, priority 2016, published 2018)

What was measured:
[1] = system: effectors of ribosome biogenesis (selected snoRNAs and RPs); test: qPCR of effectors of ribosome biogenesis in ovarian clear cell carcinoma cells; assay type: cell-based, human; conditions: ES-2 and TOV-21G, following 24 h of treatment
Excerpt: (§1) For anti-ribosome biogenesis assays, including cell growth, cell migration and cell cycle analysis, ovarian clear cells were maintained for five days in culture medium with or without RNA polymerase I inhibitor, CX-5461 (Selleckchem, Houston, Tex.) or GSK2126458 (GlaxoSmithKline, Middlesex, United Kingdom).
(§2) Please refer to FIGS. 4A to 4E, which illustrate that mTOR/c-Myc inhibition suppresses cell growth and mobility of ovarian clear cells according to an embodiment of the present invention. FIG. 4A is depicted to ovarian cancer cell lines, ES-2 and TOV-2IG, treated with the mTOR/c-Myc inhibitor, GSK2126458, at a final concentration of 50 nM. GSK2126458 effects on effectors of ribosome biogenesis were measured by qPCR at the indicated time points. […] FIG. 4B is depicted to GSK2126458 effects on cell growth were assessed via MTT assay. FIG. 4C is depicted to cell mobility measured using wound-healing migration assays. Cells migrating into the detection zone were counted and averaged from eight replicates. […] FIG. 4E is depicted to cell cycle inhibited by GSK2126458 after 48 hours of treatment and analyzed by flow cytometry using propidium iodide DNA staining. […]
(§3) Please refer to FIGS. 5A to 5D, which illustrate that RNA polymerase 1 inhibition suppresses cell growth and mobility of ovarian clear cells. […] FIG. 5B is depicted to CX-5461 effects on cell growth were assessed via MTT assay. […]

[2] = system: ovarian clear cell carcinoma cell lines ES-2 and TOV-21G; test: cell growth via MTT assay; assay type: cell-based, human; conditions: after 48 h of treatment
Excerpt: as §1, §2, §3

[3] = system: ovarian clear cell carcinoma cell lines ES-2 and TOV-21G; test: wound-healing migration assay (cell mobility); assay type: cell-based, human; conditions: after 48 h of treatment
Excerpt: as §1, §2, §3

[4] = system: ovarian clear cell carcinoma cell lines ES-2 and TOV-21G; test: DNA synthesis (BrdU incorporation); assay type: cell-based, human; conditions: after 48 h of treatment
Excerpt: as §1
(§4) Please refer to FIGS. 4A to 4E, which illustrate that mTOR/c-Myc inhibition suppresses cell growth and mobility of ovarian clear cells according to an embodiment of the present invention. FIG. 4A is depicted to ovarian cancer cell lines, ES-2 and TOV-2IG, treated with the mTOR/c-Myc inhibitor, GSK2126458, at a final concentration of 50 nM. GSK2126458 effects on effectors of ribosome biogenesis were measured by qPCR at the indicated time points. Data were represented as means of triplicates with standard variations. FIG. 4B is depicted to GSK2126458 effects on cell growth were assessed via MTT assay. FIG. 4C is depicted to cell mobility measured using wound-healing migration assays. Cells migrating into the detection zone were counted and averaged from eight replicates. FIG. 4D is depicted to DNA synthesis (BrdU incorporation) of cells influenced by GSK2126458. FIG. 4E is depicted to cell cycle inhibited by GSK2126458 after 48 hours of treatment and analyzed by flow cytometry using propidium iodide DNA staining. The cell cycle of many cells was inhibited and arrested at G1 phase.

[5] = system: ES-2 cells; test: cell cycle analysis by flow cytometry using propidium iodide DNA staining, ES-2; assay type: cell-based, human; conditions: after 96 h of treatment
Excerpt: as §1
(§5) Please refer to FIGS. 5A to 5D, which illustrate that RNA polymerase 1 inhibition suppresses cell growth and mobility of ovarian clear cells. FIG. 5A is depicted to cells treated with the RNA polymerase 1 inhibitor, CX-5461, at a final concentration of 25 nM. CX-5461 effects on downstream effectors of ribosome biogenesis were measured by qPCR at the indicated time points. Data were represented as means of triplicates with standard variations. FIG. 5B is depicted to CX-5461 effects on cell growth were assessed via MTT assay. FIG. 5C is depicted to cell mobility measured using wound-healing migration assays. Cells migrating into the detection zone were counted and averaged from eight replicates. FIG. 5D is depicted to treated cells that were analyzed at the indicated time points by flow cytometry using propidium iodide DNA staining.

[6] = system: TOV-21G cells; test: cell cycle analysis by flow cytometry using propidium iodide DNA staining, TOV-21G; assay type: cell-based, human; conditions: after 96 h of treatment
Excerpt: as §1, §5

[7] = system: endometriosis lesions; test: mouse model of endometriosis: lesion numbers; assay type: in vivo, C57BL/6 mice; conditions: compared to respective vehicle; CX-5461 1.25 mg/100 μL thrice per week, GSK2126458 0.075 mg/100 μL five times per week, three weeks
Method: (§6) Mature (approximately 8-week-old) female C57BL/6 mice were purchased from Harlan Laboratories (Derby, UK) and were allowed to acclimate for 1 week before surgery. Mice were maintained on standard chow and water available ad libitum and were housed in environmentally controlled facilities illuminated between 7:00 AM and 7:00 PM. All the animal procedures were performed in accordance with legal requirements.
Typically, menstruation was induced in adult donor mice (approximately 8 weeks of age) using a protocol developed as aforemented. In brief, long-term ovariectomized (OVE) mice (day 1) were primed with s.c. injections of 100 ng of estradiol-17β (days 7 to 9), treated with progesterone (P4; Sigma-Aldrich, Dorset, UK) delivered via a SILASTIC implant (Dow Corning Corp, Midland, Mich.) from days 13 to 19, and injected with 5 ng of estradiol-17β in sesame oil on days 13, 14, and 15. Decidualization was induced in one uterine horn using […] of oil (day 15), and endometrial tissue in the process of being shed from the decidualized horn was recovered from mice culled on day 19, 4 hours after P4 withdrawal (removal of pellet) by opening the horn longitudinally in a petri dish and scraping the tissue away from the myometrial layer using a scalpel. […]

[8] = system: inflammatory cells (small peritoneal macrophages, neutrophils) in abdominal cavity; test: mouse model of endometriosis: inflammatory cells in abdominal cavity; assay type: in vivo, C57BL/6 mice; conditions: comparing with naive, sham and vehicles; for small peritoneal macrophages in abdominal cavity: three weeks of treatment (FIG. 8A); for neutrophils in abdominal cavity: three weeks of treatment (FIG. 8B)
Method: as §6
(§7) Typically, menstruation was induced in adult donor mice (approximately 8 weeks of age) using a protocol developed as aforemented. In brief, long-term ovariectomized (OVE) mice (day 1) were primed with s.c. injections of 100 ng of estradiol-17β (days 7 to 9), treated with progesterone (P4; Sigma-Aldrich, Dorset, UK) delivered via a SILASTIC implant (Dow Corning Corp, Midland, Mich.) from days 13 to 19, and injected with 5 ng of estradiol-17β in sesame oil on days 13, 14, and 15. Decidualization was induced in one uterine horn using […] of oil (day 15), and endometrial tissue in the process of being shed from the decidualized horn was recovered from mice culled on day 19, 4 hours after P4 withdrawal (removal of pellet) by opening the horn longitudinally in a petri dish and scraping the tissue away from the myometrial layer using a scalpel. The tissue mass was suspended in 0.2 mL of PBS and passed through a 19-gauge needle before being injected i.p. into anesthetized recipient mice (approximately 8 weeks of age) that had been previously ovariectomized and implanted with an estradiol-17β (Sigma-Aldrich) SILASTIC implant (FIG. 6). Tissue from one decidualized donor horn was used to inoculate each recipient mouse (approximately 40 mg tissue/0.2 mL PBS per mouse) on day 19. In FIG. 6, there are four groups: B, injecting recipient mice with EV once and vehicle of CX-5461 every Monday, Wednesday and Friday for three weeks; GSK, injecting recipient mice with EV once and GSK2126458 on Monday to Friday for three weeks; A, injecting recipient mice with EV once and vehicle of GSK2126458 on Monday to Friday for three weeks; Sham, injecting recipient mice with EV once (no endometriosis, hormone treatment); Naive, mice without endometriosis or treated with any hormone or drug.
[…] E2 (E2, 100 ng/100 μL or 5 ng/100 μL) was diluted in sesame oil. Estradiol valerate (EV, 500 ng/100 μL) was diluted in sesame oil. P4 pellet was fused with progesterone (P4; Sigma-Aldrich, Dorset, UK) delivered via a SILASTIC implant (Dow Corning Corp, Midland, Mich.). […]

[9] = system: endometriosis-related pain; test: mouse model of endometriosis: tunnel entries (overall activity); assay type: in vivo, C57BL/6 mice; conditions: versus vehicles; day 33 to day 40 (FIG. 9A)
Method: as §6
Typically, menstruation was induced in adult donor mice (approximately 8 weeks of age) using a protocol developed as aforemented. In brief, long-term ovariectomized (OVE) mice (day 1) were primed with s.c. injections of 100 ng of estradiol-17β (days 7 to 9), treated with progesterone (P4; Sigma-Aldrich, Dorset, UK) delivered via a SILASTIC implant (Dow Corning Corp, Midland, Mich.) from days 13 to 19, and injected with 5 ng of estradiol-17β in sesame oil on days 13, 14, and 15. […]
On day 33 to day 40, some behavior tests were scored from tunnel entries and pressure pain thresholds. Mice freely moved in three cages connected by tunnels, and numbers of tunnel entered by each mouse were measured in five minutes, and the average of three measures were calculated, for evaluating overall activity of each mouse. […]

[10] = system: endometriosis-related pain; test: mouse model of endometriosis: pressure pain thresholds (mechanical hyperalgesia); assay type: in vivo, C57BL/6 mice; conditions: versus vehicles; for abdominal retraction threshold: day 33 to day 40 (FIG. 9B); for paw withdrawal threshold: hind paw, day 33 to day 40 (FIG. 9C)
Method: as §6
as §7, with “In FIG. 6, there are four groups: B, injecting recipient mice with EV once and vehicle of CX-5461 every Monday, Wednesday and Friday for three weeks; GSK, injecting recipient mice with EV once and GSK2126458 on Monday to Friday for three weeks; A, injecting recipient mice with EV once and vehicle of GSK2126458 on Monday to Friday for three weeks; Sham, injecting recipient mice with EV once (no endometriosis, hormone treatment); Naive, mice without endometriosis or treated with any hormone or drug.” left out
Pressure pain thresholds were assessed by a commercially available pain evaluation kit (Touch Test® Sensory Evaluators (North Coast Medical Inc., CA, U.S.A.). This pain evaluation kit has different probes (or needles) of different diameters, which were respectively stab the abdomen or the palmar side of the hind paw of mice. Mice were instructed to signal when the stimulus became painful, and observed which size cause painful. Threshold levels (gravity, g) were assessed before and after the test, and the average of three measures were calculated, for evaluating abdominal retraction threshold (g) or paw withdrawal threshold (g) of each mouse. […]

[11] = system: ovarian clear cell carcinoma cell lines ES-2 and TOV-21G; test: cell cycle analysis by flow cytometry using propidium iodide DNA staining (both cell lines, result in words); assay type: cell-based, human; conditions: after 48 hours of treatment (FIG. 4E)
Excerpt: as §1, §4

| Compound | expression of the selected snoRNAs and RPs (qPCR, FIG. 5A) ([1]; CX-5461 at 25 nM) | expression of the selected snoRNAs and RPs (qPCR, FIG. 4A) ([1]; FIG. 4A legend: GSK2126458 at 50 nM) | cell proliferation rate [2] | cell mobility rate [3] | DNA synthesis [4] | cell arrest at G2/M-phase [5] [%] | cell death [5] [%] | cell arrest at G2/M-phase [6] [%] | cell death [6] [%] | lesion numbers [7] | small peritoneal macrophages in abdominal cavity [8] | neutrophils in abdominal cavity [8] | overall activity (tunnel entries in five minutes) [9] | abdominal retraction threshold [10] | paw withdrawal threshold [10] | cell cycle arrest [11] | cells of sub-G1 phase (implying cell death) [11] |
| --- | --- | --- | --- | --- | --- | --- | --- | --- | --- | --- | --- | --- | --- | --- | --- | --- | --- |
| Cc1cnc(CNC(=O)c2c(=O)c3ccc(N4CCCN(C)CC4)nc3n3c2sc2ccccc23)cn1 [CX-5461] | reduced | reduced | decreased | decreased | inhibition | 48.1 | 12.3 | 52.3 | 23.4 | significantly reduced | significantly reduced | significantly reduced | more active | higher | higher | – | – |
| COc1ncc(-c2ccc3nccc(-c4ccnnc4)c3c2)cc1NS(=O)(=O)c1ccc(F)cc1F [GSK2126458, 2,4-difluoro-N-[2-methoxy-5-[4-(4-pyridazinyl)-6-quinolinyl]-3-pyridinyl]benzenesulfonamide] | – | – | decreased | decreased | inhibition | – | – | – | – | significantly reduced | significantly reduced | significantly reduced | more active | higher | higher | cell arrest at G1-phase | increased |
